Our source for the IC50 values is patent publication US12473304B2, “Heterocyclic PAD4 inhibitors” (BRISTOL-MYERS SQUIBB COMPANY, priority 2020, dated 2025).

human PAD4 (hPAD4), sequence (Q9UM07 whole entry): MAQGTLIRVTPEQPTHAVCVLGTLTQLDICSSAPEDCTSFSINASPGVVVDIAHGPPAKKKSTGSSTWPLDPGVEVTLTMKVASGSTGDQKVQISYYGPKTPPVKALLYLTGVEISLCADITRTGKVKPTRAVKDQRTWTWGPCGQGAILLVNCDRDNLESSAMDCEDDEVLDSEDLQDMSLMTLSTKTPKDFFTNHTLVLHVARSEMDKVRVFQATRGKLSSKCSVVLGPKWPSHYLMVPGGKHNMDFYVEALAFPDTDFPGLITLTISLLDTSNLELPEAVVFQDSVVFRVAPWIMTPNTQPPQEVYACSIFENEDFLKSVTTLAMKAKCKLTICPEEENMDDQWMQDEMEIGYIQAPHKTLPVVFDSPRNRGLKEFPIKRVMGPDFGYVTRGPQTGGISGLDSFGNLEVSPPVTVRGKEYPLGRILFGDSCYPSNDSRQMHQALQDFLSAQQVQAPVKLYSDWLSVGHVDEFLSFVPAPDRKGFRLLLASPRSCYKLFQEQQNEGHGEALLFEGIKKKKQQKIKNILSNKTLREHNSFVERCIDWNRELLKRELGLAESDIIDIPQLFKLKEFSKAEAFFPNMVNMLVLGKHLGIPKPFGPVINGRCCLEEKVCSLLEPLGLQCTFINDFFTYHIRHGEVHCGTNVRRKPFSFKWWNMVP

In the assay the target is human PAD4 (hPAD4) (Homo sapiens (Human), UniProt Q9UM07). The assay can be described thus: RFMS Human PAD4 Functional Assay 1. Type of assay: biochemical. As to conditions: RFMS assay 1; 5 nM hPAD4, 250 μM BAEE substrate, 50 μM calcium, 37° C. The essentials:
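Recombinant hPAD4 (5 nM) was preincubated with compound (top 50 μM, 0.5% DMSO) for 30 min at 37 °C, then reacted with 250 μM BAEE for 90 min at 37 °C in pH 7.5 HEPES buffer with 50 μM calcium and 5 μM TPEN. Product was derivatized with phenyl glyoxal and quantified by RapidFire MS.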
By IC50 is commonly meant the concentration that inhibits the measured activity by half. Regarding `COc1cc(C(=O)N2C[C@H](N)C[C@@H](F)C2)cc2sc(-c3cc4ccc(N5CCC(OC)CC5)nc4n3CC3CC3)c(C)c12` [Example 142, ((3R,5R)-3-Amino-5-fluoropiperidin-1-yl)(2-(1-(cyclopropylmethyl)-6-(4-methoxypiperidin-1-yl)-1H-pyrrolo[2,3-b]pyridin-2-yl)-4-methoxy-3-methylbenzo[b]thiophen-6-yl)methanone], the IC50 came out at 642 nM.

`COCC(=O)N1CCC(c2cccc3cc(-c4nn5cc(C(=O)N6CCC[C@@H](N)C6)cc(F)c5c4C)n(CC4CC4)c23)CC1` [Example 429, (R)-1-(4-(2-(6-(3-Aminopiperidine-1-carbonyl)-4-fluoro-3-methylpyrazolo[1,5-a]pyridin-2-yl)-1-(cyclopropylmethyl)-1H-indol-7-yl)piperidin-1-yl)-2-methoxyethan-1-one]: the IC50 was 40 nM.

In the case of `CCOCC(=O)N1CCC(c2cccc3cc(-c4nn5cc(C(=O)N6C[C@H](N)C[C@@H](F)C6)ccc5c4C)n(CC4CC4)c23)CC1` [Example 442, 1-(4-(2-(6-((3R,5R)-3-amino-5-fluoropiperidine-1-carbonyl)-3-methylpyrazolo[1,5-a]pyridin-2-yl)-1-(cyclopropylmethyl)-1H-indol-7-yl)piperidin-1-yl)-2-ethoxyethan-1-one], the IC50 was found to be 30 nM.

Take `Cc1c(-c2cc3ccnc(OCC4CNC(=O)C4)c3n2CC2CC2)nn2cc(C(=O)N3CCC[C@@H](N)C3)ccc12` (single isomer, unassigned; isomer 1) [Example 618]: the IC50 is 50 nM.

Regarding `CC(=O)N1CC(c2cccc3cc(-c4nn5cc(C(=O)N6C[C@H](N)C[C@@H](F)C6)ccc5c4C)n(CC4CC4)c23)C1` [Example 548, 1-(3-(2-(6-((3R,5R)-3-Amino-5-fluoropiperidine-1-carbonyl)-3-methylpyrazolo[1,5-a]pyridin-2-yl)-1-(cyclopropylmethyl)-1H-indol-7-yl)azetidin-1-yl)ethan-1-one], the IC50 was found to be 170 nM.

With `Cc1c(-c2cc3ccc(-c4cccc(O)c4F)nc3n2CC2CC2)nn2cc(C(=O)N3CCC[C@@H](N)C3)ccc12` [Example 314, 3-(2-{6-[(3R)-3-Aminopiperidine-1-carbonyl]-3-methylpyrazolo[1,5-a]pyridin-2-yl}-1-(cyclopropylmethyl)-1H-pyrrolo[2,3-b]pyridin-6-yl)-2-fluorophenol], the IC50 stood at 40 nM.

Take `Cc1c(-c2cc3ccc(-c4cccc5[nH]ncc45)nc3n2CC2CC2)nn2cc(C(=O)N3CCC[C@@H](N)C3)ccc12` [Example 311, (3R)-1-{2-[1-(Cyclopropylmethyl)-6-(1H-indazol-4-yl)-1H-pyrrolo[2,3-b]pyridin-2-yl]-3-methylpyrazolo[1,5-a]pyridine-6-carbonyl}piperidin-3-amine]: the IC50 was found to be 210 nM.

Turning to `Cc1c(-c2cc3ccc(N4CCOCC4)nc3n2CC2CC2)nn2cc(C(=O)N3CC4CCC3[C@@H]4N)cc(F)c12` (stereo partly drawn) [Example 266, (7R)-2-{2-[1-(Cyclopropylmethyl)-6-(morpholin-4-yl)-1H-pyrrolo[2,3-b]pyridin-2-yl]-4-fluoro-3-methylpyrazolo[1,5-a]pyridine-6-carbonyl}-2-azabicyclo[2.2.1]heptan-7-amine], the IC50 was found to be 280 nM.

`Cc1c(-c2cc3ccc(-c4ccc5c(c4)CNC5=O)nc3n2CC2CC2)nn2cc(C(=O)N3CCC[C@@H](N)C3)ccc12` [Example 317, 5-(2-{6-[(3R)-3-Aminopiperidine-1-carbonyl]-3-methylpyrazolo[1,5-a]pyridin-2-yl}-1-(cyclopropylmethyl)-1H-pyrrolo[2,3-b]pyridin-6-yl)-2,3-dihydro-1H-isoindol-1-one]: the IC50 amounted to 510 nM.

`COc1cc(C(=O)N2CC3CCC2[C@@H]3N)cc2sc(-c3cc4ccc(-c5ccc(O)c(F)c5)nc4n3CC3CC3)c(C)c12` (stereo partly drawn) [Example 136, ((7R)-7-Amino-2-azabicyclo[2.2.1]heptan-2-yl)(2-(1-(cyclopropylmethyl)-6-(3-fluoro-4-hydroxyphenyl)-1H-pyrrolo[2,3-b]pyridin-2-yl)-4-methoxy-3-methylbenzo[b]thiophen-6-yl)methanone]: the IC50 turned out to be 705 nM.

Regarding `Cc1c(-c2cc3ccc(-c4cccc(O)c4Cl)nc3n2CC2CC2)nn2cc(C(=O)N3CCC[C@@H](N)C3)cc(F)c12` [Example 278, 3-(2-{6-[(3R)-3-Aminopiperidine-1-carbonyl]-4-fluoro-3-methylpyrazolo[1,5-a]pyridin-2-yl}-1-(cyclopropylmethyl)-1H-pyrrolo[2,3-b]pyridin-6-yl)-2-chlorophenol], the IC50 came out at 390 nM.

On to `COc1cc(C(=O)N2CC3CCC2[C@@H]3N)cn2nc(-c3cc4ccc(C)cc4n3CC3CC3)c(C)c12` (stereo partly drawn) [Example 27, ((7R)-7-Amino-2-azabicyclo[2.2.1]heptan-2-yl)(2-(1-(cyclopropylmethyl)-6-methyl-1H-indol-2-yl)-4-methoxy-3-methylpyrazolo[1,5-a]pyridin-6-yl)methanone], for which the IC50 came out at 22 nM.

As for `Cc1c(-c2cc3ccc(N4CCC(N(C)S(C)(=O)=O)CC4)cc3n2CC2CC2)nn2cc(C(=O)N3CCC[C@@H](N)C3)ccc12` [Example 362, N-[1-(2-{6-[(3R)-3-Aminopiperidine-1-carbonyl]-3-methylpyrazolo[1,5-a]pyridin-2-yl}-1-(cyclopropylmethyl)-1H-indol-6-yl)piperidin-4-yl]-N-methylmethanesulfonamide], the concentration for half-maximal inhibition (IC50) is 430 nM.

As to `Cc1c(-c2cc3ccc(Cl)nc3n2CC2CC2)nn2cc(C(=O)N3CC4CCC3[C@@H]4N)cc(F)c12` (stereo partly drawn) [Example 39, ((7R)-7-Amino-2-azabicyclo[2.2.1]heptan-2-yl)(2-(6-chloro-1-(cyclopropylmethyl)-1H-pyrrolo[2,3-b]pyridin-2-yl)-4-fluoro-3-methylpyrazolo[1,5-a]pyridin-6-yl)methanone], the IC50 stood at 87 nM.

In the case of `COc1cc(C(=O)N2CC3CCC2[C@@H]3N)cc2sc(-c3cc4ccc(-c5ccc(C(N)=O)c(Cl)c5)cc4n3CC3CC3)c(C)c12` (stereo partly drawn) [Example 125, 4-(2-(6-((7R)-7-Amino-2-azabicyclo[2.2.1]heptane-2-carbonyl)-4-methoxy-3-methylbenzo[b]thiophen-2-yl)-1-(cyclopropylmethyl)-1H-indol-6-yl)-2-chlorobenzamide], the IC50 was 413 nM.

As for `COc1cc(C(=O)N2CCC[C@@H](N)C2)cn2nc(-c3cc4ccc(N5CCC(CC(=O)N(C)C)CC5)cc4n3CC3CC3)c(C)c12` [Example 250, 2-[1-(2-{6-[(3R)-3-Aminopiperidine-1-carbonyl]-4-methoxy-3-methylpyrazolo[1,5-a]pyridin-2-yl}-1-(cyclopropylmethyl)-1H-indol-6-yl)piperidin-4-yl]-N,N-dimethylacetamide], the IC50 came to 90 nM.

`COc1cc(C(=O)N2C[C@H](N)C[C@@H](F)C2)cn2nc(-c3cc4ccc(-c5cccc(-c6nn[nH]n6)c5)cc4n3CC3CC3)c(C)c12` [Example 220, (3R,5R)-1-{2-[1-(Cyclopropylmethyl)-6-[3-(2H-1,2,3,4-tetrazol-5-yl)phenyl]-1H-indol-2-yl]-4-methoxy-3-methylpyrazolo[1,5-a]pyridine-6-carbonyl}-5-fluoropiperidin-3-amine]: the IC50 stood at 4340 nM.

Take `COc1cc(C(=O)N2C[C@H](N)C[C@@H](F)C2)cn2nc(-c3cc4cccc(C5CN(C(=O)[C@H]6CC[C@H](O)CC6)C5)c4n3CC3CC3)c(C)c12` [Example 514, ((3R,5R)-3-Amino-5-fluoropiperidin-1-yl)(2-(1-(cyclopropylmethyl)-7-(1-((1R,4R)-4-hydroxycyclohexane-1-carbonyl)azetidin-3-yl)-1H-indol-2-yl)-4-methoxy-3-methylpyrazolo[1,5-a]pyridin-6-yl)methanone]: the IC50 was determined as 60 nM.

Turning to `COc1cc(C(=O)N2CCC[C@@H](N)C2)cn2nc(-c3cc4ccnc(OCC5CNC(=O)C5)c4n3CC3CC3)c(C)c12` (single isomer, unassigned; isomer 1) [Example 591], the concentration for half-maximal inhibition (IC50) stood at 30 nM.

For the compound `Cc1c(-c2cc3cccc(C4CN(C(=O)[C@H]5CC[C@@H](O)CC5)C4)c3n2CC2CC2)nn2cc(C(=O)N3C[C@H](N)C[C@@H](F)C3)ccc12` [Example 538, ((3R,5R)-3-Amino-5-fluoropiperidin-1-yl)(2-(1-(cyclopropylmethyl)-7-(1-((1s,4s)-4-hydroxycyclohexane-1-carbonyl)azetidin-3-yl)-1H-indol-2-yl)-3-methylpyrazolo[1,5-a]pyridin-6-yl)methanone], the IC50 turned out to be 40 nM.

For `COc1cc(C(=O)N2CCC[C@@H](N)C2)cn2nc(-c3cc4ccc(-c5cccc(CO)c5)cc4n3CC3CC3)c(C)c12` [Example 227, [3-(2-{6-[(3R)-3-Aminopiperidine-1-carbonyl]-4-methoxy-3-methylpyrazolo[1,5-a]pyridin-2-yl}-1-(cyclopropylmethyl)-1H-indol-6-yl)phenyl]methanol], the IC50 was 950 nM.

`Cc1c(-c2cc3cccc(OCCn4cc(N)cn4)c3n2CC2CC2)nn2cc(C(=O)N3CCC[C@@H](N)C3)ccc12` [Example 582, (R)-(2-(7-(2-(4-Amino-1H-pyrazol-1-yl)ethoxy)-1-(cyclopropylmethyl)-1H-indol-2-yl)-3-methylpyrazolo[1,5-a]pyridin-6-yl)(3-aminopiperidin-1-yl)methanone]: the IC50 turned out to be 300 nM.

On to `Cc1ccc2cc(-c3nn4cc(C(=O)N5C[C@H](N)C[C@@H](F)C5)ccc4c3C)n(CC3CC3)c2n1` [Example 82, ((3R,5R)-3-Amino-5-fluoropiperidin-1-yl)(2-(1-(cyclopropylmethyl)-6-methyl-1H-pyrrolo[2,3-b]pyridin-2-yl)-3-methylpyrazolo[1,5-a]pyridin-6-yl)methanone], for which the IC50 stood at 368 nM.

As for `Cc1c(-c2cc3ccc(N4CCC(C(=O)N5CCCC5)CC4)cc3n2CC2CC2)nn2cc(C(=O)N3C[C@H](N)C[C@@H](F)C3)ccc12` [Example 355, (3R,5R)-1-{2-[1-(Cyclopropylmethyl)-6-[4-(pyrrolidine-1-carbonyl)piperidin-1-yl]-1H-indol-2-yl]-3-methylpyrazolo[1,5-a]pyridine-6-carbonyl}-5-fluoropiperidin-3-amine], the IC50 was determined as 20 nM.
